Measured values as given in patent US10745382B2 (BRISTOL-MYERS SQUIBB COMPANY, priority 2015, dated 2020).
Like-named read-outs stand apart in the source and are kept apart here.

Molecular target: T1, PD-1/PD-L1 (Homo sapiens, UniProt Q9NZQ7)
T1 construct: made in house; host or cells: HEK293T
Experiment: PD-1/PD-L1 Homogenous Time-Resolved Fluorescence (HTRF) binding assay
Conditions: PD-L1-His 10 nM, PD-1-Ig 20 nM, read-out: Range or IC50
Procedure, shortened: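 Read-out is time-resolved FRET between europium cryptate-labelled anti-Ig (1 nM final) and APC-labelled anti-His (20 nM final), both dispensed onto the binding mix. Assay buffer: dPBS containing 0.1% bovine serum albumin and 0.05% Tween-20.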

T1 sequence (Q9NZQ7 with tags, fused parts or gaps): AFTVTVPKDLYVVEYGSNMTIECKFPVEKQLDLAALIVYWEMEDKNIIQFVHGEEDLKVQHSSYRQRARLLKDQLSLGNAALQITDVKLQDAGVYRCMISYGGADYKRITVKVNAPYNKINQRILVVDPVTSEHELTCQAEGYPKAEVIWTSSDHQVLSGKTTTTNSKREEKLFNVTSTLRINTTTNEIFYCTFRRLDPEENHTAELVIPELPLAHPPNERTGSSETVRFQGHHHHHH

Compound `Cc1c(COc2cc(OCc3cncc(C#N)c3)c(CNC(C)(CO)CO)cc2Cl)cccc1-c1cccc(OCCC(C)(C)O)c1Cl` [Example 2080, 5-((4-chloro-5-((2′-chloro-3′-(3-hydroxy-3-methylbutoxy)-2-methyl-[1,1′-biphenyl]-3-yl)methoxy)-2-(((1,3-dihydroxy-2-methylpropan-2-yl)amino)methyl)phenoxy)methyl)nicotinonitrile] has an IC50 (value given as range class) of 0.21 to 10 nM.
With `Cc1c(COc2cc(OCc3cncc(C#N)c3)c(CNC(C)(CO)CO)cc2Cl)cccc1-c1cccc(OCCc2ccccn2)c1Cl` [Example 2081, 5-((4-chloro-5-((2′-chloro-2-methyl-3′-(2-(pyridin-2-yl)ethoxy)-[1,1′-biphenyl]-3-yl)methoxy)-2-(((1,3-dihydroxy-2-methylpropan-2-yl)amino)methyl)phenoxy)methyl)nicotinonitrile] the IC50 (value given as range class) was 0.21 to 10 nM.
Work on `Cc1c(COc2cc(OCc3cncc(C#N)c3)c(CNC(C)(CO)CO)cc2Cl)cccc1-c1cccc(OCC(O)CO)c1Cl` (centres unmarked) [Example 2082, 5-((4-chloro-5-((2′-chloro-3′-(2,3-dihydroxypropoxy)-2-methyl-[1,1′-biphenyl]-3-yl)methoxy)-2-(((1,3-dihydroxy-2-methylpropan-2-yl)amino)methyl)phenoxy)methyl)nicotinonitrile] yielded an IC50 (value given as range class) of 0.21 to 10 nM.
`Cc1c(COc2cc(OCc3cncc(C#N)c3)c(CN3CCCC[C@H]3C(=O)O)cc2Cl)cccc1-c1cccc(OCC(O)CO)c1Cl` (stereo partly drawn) [Example 2083, (2S)-1-(5-chloro-4-((2′-chloro-3′-(2,3-dihydroxypropoxy)-2-methyl-[1,1′-biphenyl]-3-yl)methoxy)-2-((5-cyanopyridin-3-yl)methoxy)benzyl)piperidine-2-carboxylic Acid] was tested, and the IC50 (numeric IC50) was 4 nM.
In the case of `Cc1c(COc2cc(OCc3cncc(C#N)c3)c(CN3CCCC[C@H]3C(=O)O)cc2Cl)cccc1-c1cccc(OCC(CO)(CO)CO)c1Cl` [Example 2084, (S)-1-(5-chloro-4-((2′-chloro-3′-(3-hydroxy-2,2-bis(hydroxymethyl)propoxy)-2-methyl-[1,1′-biphenyl]-3-yl)methoxy)-2-((5-cyanopyridin-3-yl)methoxy)benzyl)piperidine-2-carboxylic Acid], the IC50 (value given as range class) is reported as 100 to 2000 nM.
In the case of `Cc1c(COc2cc(OCc3cncc(C#N)c3)c(CNC(C)(CO)CO)cc2Cl)cccc1-c1cccc(OCC(CO)(CO)CO)c1Cl` [Example 2085, 5-((4-chloro-5-((2′-chloro-3′-(3-hydroxy-2,2-bis(hydroxymethyl)propoxy)-2-methyl-[1,1′-biphenyl]-3-yl)methoxy)-2-(((1,3-dihydroxy-2-methylpropan-2-yl)amino)methyl)phenoxy)methyl)nicotinonitrile], the IC50 (value given as range class) is reported as 0.21 to 10 nM.
`Cc1c(COc2cc(OCc3cncc(C#N)c3)c(CNC(C)(CO)CO)cc2Cl)cccc1-c1cccc(OCC(O)CN2CC[C@@H](O)C2)c1Cl` (stereo partly drawn) [Example 2086, 5-((4-chloro-5-((2′-chloro-3′-(2-hydroxy-3-((R)-3-hydroxypyrrolidin-1-yl)propoxy)-2-methyl-[1,1′-biphenyl]-3-yl)methoxy)-2-(((1,3-dihydroxy-2-methylpropan-2-yl)amino)methyl)phenoxy)methyl)nicotinonitrile] was tested, and the IC50 (value given as range class) was 0.21 to 10 nM.
In the case of `Cc1c(COc2cc(OCc3cncc(C#N)c3)c(CNC(C)(CO)CO)cc2Cl)cccc1-c1cccc(OCCCNC(=O)C(O)CO)c1Cl` (centres unmarked) [Example 2088, N-(3-((2-chloro-3′-((2-chloro-5-((5-cyanopyridin-3-yl)methoxy)-4-(((1,3-dihydroxy-2-methylpropan-2-yl)amino)methyl)phenoxy)methyl)-2′-methyl-[1,1′-biphenyl]-3-yl)oxy)propyl)-2,3-dihydroxypropanamide], the IC50 (value given as range class) is reported as 0.21 to 10 nM.
Compound `Cc1c(COc2cc(OCc3cncc(C#N)c3)c(CNC(C)(CO)CO)cc2Cl)cccc1-c1cccc(OCCCNC(=O)Cc2ccccn2)c1Cl` [Example 2089, N-(3-((2-chloro-3′-((2-chloro-5-((5-cyanopyridin-3-yl)methoxy)-4-(((1,3-dihydroxy-2-methylpropan-2-yl)amino)methyl)phenoxy)methyl)-2′-methyl-[1,1′-biphenyl]-3-yl)oxy)propyl)-2-(pyridin-2-yl)acetamide] has an IC50 (value given as range class) of 0.21 to 10 nM.
Work on `Cc1c(COc2cc(OCc3cncc(C#N)c3)c(CNC(C)(CO)CO)cc2Cl)cccc1-c1cccc(CNCCN2CCOCC2)c1Cl` [Example 2092, 5-((4-chloro-5-((2′-chloro-2-methyl-3′-(((2-morpholinoethyl)amino)methyl)-[1,1′-biphenyl]-3-yl)methoxy)-2-(((1,3-dihydroxy-2-methylpropan-2-yl)amino)methyl)phenoxy)methyl)nicotinonitrile] yielded an IC50 (value given as range class) of 0.21 to 10 nM.
For `Cc1c(OCCCN2CC[C@@H](O)C2)cccc1-c1c(Cl)ccc(COc2cc(OCc3cncc(C#N)c3)c(CNC(C)(CO)CO)cc2Cl)c1Cl` [Example 2093, 5-((4-chloro-5-((2,6-dichloro-3′-(3-((R)-3-hydroxypyrrolidin-1-yl)propoxy)-2′-methyl-[1,1′-biphenyl]-3-yl)methoxy)-2-(((1,3-dihydroxy-2-methylpropan-2-yl)amino)methyl)phenoxy)methyl)nicotinonitrile], the IC50 (value given as range class) was 0.21 to 10 nM.
Compound `CC(=O)N[C@H]1CCN(CCCOc2cccc(-c3c(Cl)ccc(COc4cc(OCc5cncc(C#N)c5)c(CNC(C)(CO)CO)cc4Cl)c3Cl)c2C)C1` [Example 2094, N-((3S)-1-(3-((2′,6′-dichloro-3′-((2-chloro-5-((5-cyanopyridin-3-yl)methoxy)-4-(((1,3-dihydroxy-2-methylpropan-2-yl)amino)methyl)phenoxy)methyl)-2-methyl-[1,1′-biphenyl]-3-yl)oxy)propyl)pyrrolidin-3-yl)acetamide] has an IC50 (numeric IC50) of 6 nM.
`Cc1c(COc2cc(OCc3cncc(C#N)c3)c(CNC(C)(CO)CO)cc2Cl)cccc1-c1cccc(OCCCNC[C@H](O)CO)c1Cl` [Example 2097, (S)-5-((4-chloro-5-((2′-chloro-3′-(3-((2,3-dihydroxypropyl)amino)propoxy)-2-methyl-[1,1′-biphenyl]-3-yl)methoxy)-2-(((1,3-dihydroxy-2-methylpropan-2-yl)amino)methyl)phenoxy)methyl)nicotinonitrile] showed an IC50 (value given as range class) of 0.21 to 10 nM.
`Cc1c(COc2cc(OCc3cncc(C#N)c3)c(CNC(C)(CO)CO)cc2Cl)cccc1-c1cccc(OCCCN2CCCC(CO)C2)c1Cl` (centres unmarked) [Example 2098, 5-((4-chloro-5-((2′-chloro-3′-(3-(3-(hydroxymethyl)piperidin-1-yl)propoxy)-2-methyl-[1,1′-biphenyl]-3-yl)methoxy)-2-(((1,3-dihydroxy-2-methylpropan-2-yl)amino)methyl)phenoxy)methyl)nicotinonitrile] showed an IC50 (value given as range class) of 0.21 to 10 nM.
`Cc1c(COc2cc(OCc3cncc(C(=N)N4CCCC(CO)C4)c3)c(CNC(C)(CO)CO)cc2Cl)cccc1-c1cccc(OCCCN2CCCC(CO)C2)c1Cl` (centres unmarked) [Example 2099, 2-((5-chloro-4-((2′-chloro-3′-(3-(3-(hydroxymethyl)piperidin-1-yl)propoxy)-2-methyl-[1,1′-biphenyl]-3-yl)methoxy)-2-((5-((3-(hydroxymethyl)piperidin-1-yl)(imino)methyl)pyridin-3-yl)methoxy)benzyl)amino)-2-methylpropane-1,3-diol] was tested, and the IC50 (value given as range class) was 0.21 to 10 nM.
For `N=C(c1cncc(COc2cc(OCc3cccc(-c4cccc(OCCCN5CC[C@@H](O)C5)c4Cl)c3Cl)c(Cl)cc2CNC[C@H](O)CO)c1)N1CC[C@@H](O)C1` [Example 2101, (S)-3-((5-chloro-4-((2,2′-dichloro-3′-(3-((R)-3-hydroxypyrrolidin-1-yl)propoxy)-[1,1′-biphenyl]-3-yl)methoxy)-2-((5-(((R)-3-hydroxypyrrolidin-1-yl)(imino)methyl)pyridin-3-yl)methoxy)benzyl)amino)propane-1,2-diol], the IC50 (value given as range class) was 0.21 to 10 nM.
For `Cc1c(COc2cc(OCc3cncc(C#N)c3)c(CNC(C)(CO)CO)cc2Cl)cccc1-c1cccc(OCCCNC(C)(CO)CO)c1Cl` [Example 2102, 5-((4-chloro-5-((2′-chloro-3′-(3-((1,3-dihydroxy-2-methylpropan-2-yl)amino)propoxy)-2-methyl-[1,1′-biphenyl]-3-yl)methoxy)-2-(((1,3-dihydroxy-2-methylpropan-2-yl)amino)methyl)phenoxy)methyl)nicotinonitrile], the IC50 (value given as range class) was 0.21 to 10 nM.
`Cc1c(COc2cc(OCc3cncc(C#N)c3)c(CNC(C)(CO)CO)cc2Cl)cccc1-c1cccc(OCCCN2CC[C@@H](O)C2)c1Cl` [Example 2104, (R)-5-((4-chloro-5-((2′-chloro-3′-(3-(3-hydroxypyrrolidin-1-yl)propoxy)-2-methyl-[1,1′-biphenyl]-3-yl)methoxy)-2-(((1,3-dihydroxy-2-methylpropan-2-yl)amino)methyl)phenoxy)methyl)nicotinonitrile] gave an IC50 (value given as range class) of 0.21 to 10 nM.
Compound `Cc1c(COc2cc(OCc3cncc(C(=N)N4CC[C@@H](O)C4)c3)c(CNC(C)(CO)CO)cc2Cl)cccc1-c1cccc(OCCCN2CC[C@@H](O)C2)c1Cl` [Example 2105, 2-((5-chloro-4-((2′-chloro-3′-(3-((R)-3-hydroxypyrrolidin-1-yl)propoxy)-2-methyl-[1,1′-biphenyl]-3-yl)methoxy)-2-((5-(((R)-3-hydroxypyrrolidin-1-yl)(imino)methyl)pyridin-3-yl)methoxy)benzyl)amino)-2-methylpropane-1,3-diol] has an IC50 (value given as range class) of 0.21 to 10 nM.
`N#Cc1cncc(COc2cc(OCc3cccc(-c4cccc(OCCCN5CC[C@@H](O)C5)c4Cl)c3Cl)c(Cl)cc2CN2CCCC[C@H]2C(=O)O)c1` [Example 2106, (S)-1-(5-chloro-2-((5-cyanopyridin-3-yl)methoxy)-4-((2,2′-dichloro-3′-(3-((R)-3-hydroxypyrrolidin-1-yl)propoxy)-[1,1′-biphenyl]-3-yl)methoxy)benzyl)piperidine-2-carboxylic Acid] was tested, and the IC50 (value given as range class) was 0.21 to 10 nM.
